Test [1] has as its system lipid peroxide in rat brain homogenate. Nature of the test: Inhibition of production of lipid peroxide in rat brain homogenate. The class given is biochemical, rat (Sprague-Dawley). The method, then: Procedure: Sprague-Dawley rats (male, 9-15 weeks old) anesthetized with pentobarbital (50 mg/kg, intraperitoneal administration) were venesected and the brain tissue was resected. The tissue was homogenized in phosphate buffer (pH 7.4), and used as a 5% homogenate (on weight basis). The brain homogenate was allowed to react at 37° C. for 1 hour, and the amount of lipid peroxide produced was determined with the thiobarbituric acid method according to the method of Okawa et al. (Analytical Biochem 95 551, 1979). The drug was added to the 5% homogenate before the reaction at 37° C. for 1 hour so that the final concentration might be 5×10^-7 or 10^-6 M. Inhibition of production of lipid peroxide was expressed as the rate of inhibition in % of the amount produced in the solvent(DMSO)-treated group.

In another test the target is T1, 5-lipoxygenase (Rattus norvegicus, UniProt P12527).
T1 construct: endogenous in cells; host or cells: RBL-1 cells (rat basophilic leukemia)
T1 sequence (P12527 1-673): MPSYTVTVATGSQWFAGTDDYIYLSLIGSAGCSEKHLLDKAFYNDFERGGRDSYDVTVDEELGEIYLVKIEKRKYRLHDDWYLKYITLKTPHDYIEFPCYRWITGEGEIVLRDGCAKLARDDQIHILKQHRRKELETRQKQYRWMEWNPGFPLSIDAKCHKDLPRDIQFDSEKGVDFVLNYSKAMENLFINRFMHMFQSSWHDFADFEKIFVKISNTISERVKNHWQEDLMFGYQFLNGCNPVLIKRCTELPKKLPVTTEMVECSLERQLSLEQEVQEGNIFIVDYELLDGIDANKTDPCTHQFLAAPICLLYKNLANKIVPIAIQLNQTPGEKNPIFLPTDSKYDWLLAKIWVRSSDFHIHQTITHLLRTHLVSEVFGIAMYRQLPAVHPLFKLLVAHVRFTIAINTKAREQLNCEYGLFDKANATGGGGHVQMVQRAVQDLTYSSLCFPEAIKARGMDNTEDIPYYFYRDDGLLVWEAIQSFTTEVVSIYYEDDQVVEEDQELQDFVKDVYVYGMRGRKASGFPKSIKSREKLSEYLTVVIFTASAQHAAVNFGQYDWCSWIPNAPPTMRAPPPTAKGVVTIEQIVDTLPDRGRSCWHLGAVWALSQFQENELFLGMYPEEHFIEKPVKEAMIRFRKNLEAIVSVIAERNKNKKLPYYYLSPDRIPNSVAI
Nature of the test: Inhibition of 5-lipoxygenase (production of 5-HETE in RBL-1 cells). Type of test: cell-based, rat (RBL-1, rat basophilic leukemia cells). The settings on record: for inhibition at 1 µM: 10^-6 M; for inhibition at 0.1 µM: 10^-7 M. The method, then:
Inhibition of 5-lipoxygenase
10^7 RBL-1 cells (rat basophilic leukemia cells) were suspended in 0.5 ml of MCM (mast cell medium ). To the suspension was subsequently added a solution consisting of 0.5 ml of MCM, 50 μg of arachidonic acid, 10 μg of A-23187 (calcium ionophore, Eli Lilly), and a solution of a quinone compound in ethanol at the final concentration of 1 μM, 0.1 μM, 0.01 μM or 0.001 μM of the test compound was added and allowed to react at 37° C. for 20 minutes. After the reaction, 4 ml of ethanol containing 1,4-dimethoxy-2-methyl-3-(3-methoxypropyl)naphthalene as an internal standard were added, mixed well by shaking, and kept at room temperature for 10 minutes. Then the mixture was centrifuged for 10 minutes (2000 rpm), and the supernatant was separated. The supernatant was concentrated to dryness under reduced pressure. To the concentrate, 0.5 ml of 60% aqueous methanol was added. One hundred μl of this solution was subjected to high performance liquid chromatography for quantitative analysis of 5-HETE (5-hydroxyeicosatetraenoic acid). The amount of 5-HETE was analyzed by measurement of the absorbance at […] with a UV absorption monitor.
Inhibitory effect (IE) of production of 5-HETE is expressed by (1-b/a)×100, wherein a is the peak height or the area corrected with the peak due to the internal standard in the absence of the quinone compound, and b is the peak hight or peak area corrected with the peak due to the internal standard in the presence of the quinone compound.

Test [2] deals with T2, Thromboxane A2 (TXA2) synthetase (Equus caballus, UniProt A0A9L0T8T9).
T2 sequence (A0A9L0T8T9 2-534): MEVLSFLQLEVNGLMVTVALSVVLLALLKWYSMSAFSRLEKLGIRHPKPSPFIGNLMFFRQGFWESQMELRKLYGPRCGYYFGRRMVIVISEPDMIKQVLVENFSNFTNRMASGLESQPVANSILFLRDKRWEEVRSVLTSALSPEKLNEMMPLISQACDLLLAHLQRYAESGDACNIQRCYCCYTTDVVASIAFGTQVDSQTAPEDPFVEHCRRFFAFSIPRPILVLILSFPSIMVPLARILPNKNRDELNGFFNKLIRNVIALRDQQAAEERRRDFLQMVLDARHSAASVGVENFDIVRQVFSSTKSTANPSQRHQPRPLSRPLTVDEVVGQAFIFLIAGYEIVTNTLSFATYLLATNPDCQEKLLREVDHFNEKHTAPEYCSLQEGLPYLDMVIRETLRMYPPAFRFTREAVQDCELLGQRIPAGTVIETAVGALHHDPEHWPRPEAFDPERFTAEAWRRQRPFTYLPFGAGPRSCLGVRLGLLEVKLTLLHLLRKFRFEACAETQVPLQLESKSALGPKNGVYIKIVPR
The experiment in a line: Inhibition of Thromboxane A2 (TXA2) synthetase (horse platelet microsome). The class given is biochemical. The following applies: read-out: Inhibition of Thromboxane A2 (TXA2) synthetase. The method, then:
Inhibition of Thromboxane A2 (TXA2) synthetase
(§1) As a preparation of TXA2 synthetase, horse platelet microsome treated with indomethacin (indomethacin-treated horse platelet microsome: IPM) according to the method of Needleman et al. (Science 193 163, 1979) was used. To 60 μl of the solution of IPM in 50 mM Tris buffer(pH 7.5) (containing 140 μg on the protein basis), 60μof a solution containing a drug at a variable concentration was added and kept still at room temperature for 5 minutes. One hundred μl of this mixture was taken, to which 20 μl of a buffer containing 30 ng cf prostaglandin H2 (PGH2) with ice-cooling and kept still at 0° C. for 5 minutes to produce thromboxane A2 (TXA2). The reaction was stopped by addition of 500 μl of Tris buffer, and 50 μl of the resultant solution was subjected to radioimmunoassay of thromboxane B2 (TXB2), a stable metabolite of TXA2 [Shibouta et al. Biochem. Pharmacol. 28 3601, 1979]. The rate of inhibition (%) of TXA2 synthetase was determined from the difference in TXB2 productivity between the untreated group and the treated group.
as §1, with “60 μl of” for “60μof”, “of” for “cf”

Like-named read-outs stand apart in the source and are kept apart here.

For `CC1=C(C)C(=O)C(C(c2ccccc2)c2cccnc2)=C(C)C1=O` (centres unmarked) [Compound No. 2, 3,5,6-trimethyl-2-[phenyl-(3-pyridyl)methyl]-1,4-benzoquinone], the “Inhibition of production of lipid peroxide in rat brain homogenate” value (“Inhibition … in rat brain homogenate” below) in test [1] (5 × 10^-7 M) is reported as 32%; in test [1] (10^-6 M), 100%. For the same compound, the results for the inhibition at 1 µM (at 5-lipoxygenase; in test [2]) were 85% and 89%, respectively. Moreover, the values for the inhibition at 0.1 µM (on 5-lipoxygenase; in test [2]) were 60% and 45%, respectively.

Turning to `CC(=Cc1ccc(C(C2=C(C)C(=O)C(C)=C(C)C2=O)c2cccnc2)cc1)C(=O)O` (stereo not drawn) [Compound No. 5, 4-[3,5,6-trimethyl-1,4-benzoquinon-2-yl(3-pyridyl)methyl]-α-methylcinnamic acid], the results for the “Inhibition … in rat brain homogenate” value in test [1] (5 × 10^-7 M) and in test [1] (10^-6 M) were 29% and 100%, respectively. The inhibition (commonly the change of the read-out against control, counted positive when it falls) at 1 µM on 5-lipoxygenase was 73%; in test [2] (10^-6 M) it was 65%. The inhibition at 0.1 µM at 5-lipoxygenase is 28%; in test [2] (10^-7 M) it was 7%.

On to `CCCCC(C1=C(C)C(=O)C(C)=C(C)C1=O)c1cccnc1` (centres unmarked) [Compound No. 7, 2-[1-(3-pyridyl)pentyl]-3,5,6-trimethyl-1,4-benzoquinone], for which the “Inhibition … in rat brain homogenate” value in test [1] (5 × 10^-7 M) is given as 26%; in test [1] (10^-6 M) it was 100%. Also, the inhibition at 1 µM against 5-lipoxygenase was found to be 86%; in test [2] (10^-6 M), 32%. Moreover, at 5-lipoxygenase, the inhibition at 0.1 µM worked out at 35%.

In the case of `CC1=C(C)C(=O)C(Cc2cccnc2)=C(C)C1=O` [Compound No. 14], the “Inhibition … in rat brain homogenate” value is listed as 46% in test [1] (5 × 10^-7 M) and 100% in test [1] (10^-6 M). In addition, the inhibition at 1 µM turned out to be 92% on 5-lipoxygenase and 61% in test [2] (10^-6 M). In addition, the inhibition at 0.1 µM on 5-lipoxygenase came out at 80%; in test [2] (10^-7 M), 35%.

Consider `CCCCCCC(C1=C(C)C(=O)C(C)=C(C)C1=O)c1cccnc1` (centres unmarked) [Compound No. 16, 1-(3,5,6-trimethyl-1,4-benzoquinon-2-yl)-1-(3-pyridyl)heptane], for which the “Inhibition … in rat brain homogenate” value in test [1] (5 × 10^-7 M) was 44%; in test [1] (10^-6 M) it was 100%. Further, the inhibition at 1 µM against 5-lipoxygenase was 96%; in test [2] (10^-6 M), 49%. The inhibition at 0.1 µM is 77% at 5-lipoxygenase and 6% in test [2] (10^-7 M).

For the compound `CC1=C(C)C(=O)C(C(CCCCO)c2cccnc2)=C(C)C1=O` (centres unmarked) [compound 8], the “Inhibition … in rat brain homogenate” value worked out at 20% in test [1] (5 × 10^-7 M) and 100% in test [1] (10^-6 M). For the same compound, the inhibition at 1 µM at 5-lipoxygenase is 88%; in test [2] (10^-6 M), 37%. Further, the values for the inhibition at 0.1 µM (on 5-lipoxygenase; in test [2] (10^-7 M)) were 63% and 6%, respectively.

Take `CC(=O)OCCCCC(C1=C(C)C(=O)C(C)=C(C)C1=O)c1cccnc1` (centres unmarked) [compound 9]: the “Inhibition … in rat brain homogenate” value is on record as 17% in test [1] (5 × 10^-7 M) and 100% in test [1] (10^-6 M). Moreover, the inhibition at 1 µM was 90% on 5-lipoxygenase and 54% in test [2] (10^-6 M). Besides, the inhibition at 0.1 µM on 5-lipoxygenase is 62%; in test [2] (10^-7 M), 18%.

Turning to `CC1=C(C)C(=O)C(C(CCCCC(=O)O)c2cccnc2)=C(C)C1=O` (centres unmarked) [compound 10], the “Inhibition … in rat brain homogenate” value in test [1] (5 × 10^-7 M) came out at 13%; in test [1] (10^-6 M) it was 100%. In addition, the inhibition at 1 µM against 5-lipoxygenase was determined as 90%; in test [2] (10^-6 M), 67%. Besides, the inhibition at 0.1 µM at 5-lipoxygenase came to 52%; in test [2] (10^-7 M) it was 24%.

With `CC1=C(C)C(=O)C(C(CCCCCO)c2cccnc2)=C(C)C1=O` (centres unmarked) [compound 11], the results for the “Inhibition … in rat brain homogenate” value in test [1] (5 × 10^-7 M) and in test [1] (10^-6 M) were 15% and 100%, respectively. Besides, the inhibition at 1 µM against 5-lipoxygenase came out at 88%; in test [2] (10^-6 M), 67%. Besides, the inhibition at 0.1 µM against 5-lipoxygenase amounted to 61%; in test [2] (10^-7 M), 13%.

On to `CC(=O)OCCCCCC(C1=C(C)C(=O)C(C)=C(C)C1=O)c1cccnc1` (centres unmarked) [compound 12], for which the “Inhibition … in rat brain homogenate” value was 15% in test [1] (5 × 10^-7 M) and 100% in test [1] (10^-6 M). Also, the inhibition at 1 µM on 5-lipoxygenase was determined as 91%; in test [2] (10^-6 M), 56%. The figures for the inhibition at 0.1 µM (against 5-lipoxygenase; in test [2] (10^-7 M)) were 67% and 22%, respectively.

For the compound `CCC(C1=C(C)C(=O)C(C)=C(C)C1=O)c1cccnc1` (centres unmarked) [compound 15], the “Inhibition … in rat brain homogenate” value in test [1] (5 × 10^-7 M) is 52%; in test [1] (10^-6 M) it was 100%. The inhibition at 1 µM at 5-lipoxygenase is 91%; in test [2] (10^-6 M), 76%. For the same compound, the figures for the inhibition at 0.1 µM (against 5-lipoxygenase; in test [2] (10^-7 M)) were 57% and 15%, respectively.

The record behind these values is patent US4985447A, “Certain benzoquinones, naphthoquinones and derivatives thereof which exhibit thromboxane A2 synthetase inhibition or receptor antagonism and the like” (Takeda Chemical Industries, Ltd., priority 1986, dated 1991).
